≈ marks a conversion by molar mass, not a printed value.
Key:
Solubility = format: physicochemical
[1] = system: hyperacetylation of tubulin, H3K9 and H3K27; experiment: Western blot of tubulin and histone H3 hyperacetylation in 4T1 cells; format: cell-based, mouse; conditions: hybrids 10 μM, 6 h
Procedure: (§1) The potential for compounds as HDACi’s can be rapidly tested in cells in culture by monitoring the hyperacetylation of histone H3 and tubulin. H3 acetylation is controlled by multiple class I enzymes, and the class IIb enzyme HDAC6 regulates tubulin acetylation.[36]−[39] […] (Figure 4A).
(§2) Figure 4 Evidence for HDAC inhibition in 4T1 and 4TO7 TNBC cells. Western blots and quantification of triplicate biological replicates analyzing the effects of 1,25D (100 nM), SAHA (100 nM), and hybrids (10 μM) on hyperacetylation of tubulin (A,D), H3K9 (B,E), and H3K27 (C,F) in 4T1 (A–C) and 4TO7 cells (D–F).
After 6 h treatments, 4T1, 4T07, or B16-F10 cells were solubilized in lysis buffer (20 mM Tris, pH 8, 150 mM NaCl, 1% Triton X-100, 3.5 mM SDS, and 13 mM deoxycholic acid), and proteins were separated on a 4–15% Tris/glycine/SDS gel (Bio-Rad). Then, the proteins were transferred to a nitrocellulose membrane, followed by blocking in 5% skim milk in Tris-buffered saline (TBS, 1×) solution. After blocking, the membranes were incubated overnight at 4 °C with the primary antibodies against acetylated tubulin (Sigma-Aldrich—#T7451), tubulin (Sigma-Aldrich—#T9026), acetyl-histone H3(Lys9) (Merck Millipore—#07-352), acetyl-histone H3 (Lys27) (Abcam—#ab4729), total histone H3 (Cell Signaling Technology (CST)—#3638), and GAPDH (Abcam—#ab8245). Then, the membranes were incubated with antimouse (CST—#7076) or antirabbit (CST—#7074) IgG HRP-linked secondary antibodies at recommended concentrations. Finally, signals were detected using Clarity ECL substrates (Bio-Rad) and a ChemiDoc Imaging System. Changes in protein levels were quantified relative to control using Image Lab software (version 6.0.1) after normalization to GAPDH. Western blot experiments were carried out three times.

[2] = system: hyperacetylation of tubulin, H3K9 and H3K27; experiment: Western blot of tubulin and histone H3 hyperacetylation in 4TO7 cells; format: cell-based, mouse; conditions: hybrids 10 μM, SAHA 100 nM, 6 h
Procedure: as §1, §2
After 6 h treatments, 4T1, 4T07, or B16-F10 cells were solubilized in lysis buffer (20 mM Tris, pH 8, 150 mM NaCl, 1% Triton X-100, 3.5 mM SDS, and 13 mM deoxycholic acid), and proteins were separated on a 4–15% Tris/glycine/SDS gel (Bio-Rad). Then, the proteins were transferred to a nitrocellulose membrane, followed by blocking in 5% skim milk in Tris-buffered saline (TBS, 1×) solution. […] Finally, signals were detected using Clarity ECL substrates (Bio-Rad) and a ChemiDoc Imaging System. Changes in protein levels were quantified relative to control using Image Lab software (version 6.0.1) after normalization to GAPDH. […]

B16-F10 tumors = experiment: B16-F10 melanoma model in vivo; parameters: species or system mouse; conditions: 2 doses of 5 mg/kg 24 h apart; also VDR gene; duplicate tumors from two animals
Procedure: We were then interested in comparing the efficacy of ZG compounds and other hybrids in tumor models in vivo. We focused initially on the B16-F10 melanoma which is syngeneic with C57BL/6 mice. The efficacy of ZG-126 in vivo in this model was tested in two experiments. […] In a second experiment, we compared the antitumor efficacy of hybrids at ∼0.5 MTD doses. […] All treatments were well tolerated, and body weights were unaffected (Figure 6C).
(§3) Finally, mice were sacrificed, and lungs of 4T1-bearing mice were removed to evaluate the efficiency of treatments on lung metastases.

4T1 tumors = experiment: 4T1 TNBC model in vivo (primary tumor and lung metastases); parameters: species or system mouse; conditions: 4T1 model; for #Surface metastases (lung): vehicle 166
Procedure: As 4T1 cells are aggressively metastatic, we can also assess the antimetastatic activity in the same experiment. All treatments were well tolerated, and, as in the B16-F10 model, none induced weight loss or other signs of stress over the course of the experiment (Figure 7A). Treatments reduced the primary tumor burden to varying degrees.
The antimetastatic activity was determined by counting the number of surface lung metastases of duplicate samples using a stereomicroscope. […] This degree of efficacy is remarkable, as in previous experiments, DK-406 reduced the metastatic burden by ∼2-fold.[30]
as §3

in vivo = conditions: BALB/c, mouse, ip
HDAC7 = molecular target: T1, HDAC7 (Homo sapiens, UniProt Q8WUI4); experiment: Biochemical assay for HDAC inhibition, HDAC7; conditions: read-out: IC50 HDAC7; Table 1, purified enzyme; unit inferred
T1 sequence (Q8WUI4 1-952): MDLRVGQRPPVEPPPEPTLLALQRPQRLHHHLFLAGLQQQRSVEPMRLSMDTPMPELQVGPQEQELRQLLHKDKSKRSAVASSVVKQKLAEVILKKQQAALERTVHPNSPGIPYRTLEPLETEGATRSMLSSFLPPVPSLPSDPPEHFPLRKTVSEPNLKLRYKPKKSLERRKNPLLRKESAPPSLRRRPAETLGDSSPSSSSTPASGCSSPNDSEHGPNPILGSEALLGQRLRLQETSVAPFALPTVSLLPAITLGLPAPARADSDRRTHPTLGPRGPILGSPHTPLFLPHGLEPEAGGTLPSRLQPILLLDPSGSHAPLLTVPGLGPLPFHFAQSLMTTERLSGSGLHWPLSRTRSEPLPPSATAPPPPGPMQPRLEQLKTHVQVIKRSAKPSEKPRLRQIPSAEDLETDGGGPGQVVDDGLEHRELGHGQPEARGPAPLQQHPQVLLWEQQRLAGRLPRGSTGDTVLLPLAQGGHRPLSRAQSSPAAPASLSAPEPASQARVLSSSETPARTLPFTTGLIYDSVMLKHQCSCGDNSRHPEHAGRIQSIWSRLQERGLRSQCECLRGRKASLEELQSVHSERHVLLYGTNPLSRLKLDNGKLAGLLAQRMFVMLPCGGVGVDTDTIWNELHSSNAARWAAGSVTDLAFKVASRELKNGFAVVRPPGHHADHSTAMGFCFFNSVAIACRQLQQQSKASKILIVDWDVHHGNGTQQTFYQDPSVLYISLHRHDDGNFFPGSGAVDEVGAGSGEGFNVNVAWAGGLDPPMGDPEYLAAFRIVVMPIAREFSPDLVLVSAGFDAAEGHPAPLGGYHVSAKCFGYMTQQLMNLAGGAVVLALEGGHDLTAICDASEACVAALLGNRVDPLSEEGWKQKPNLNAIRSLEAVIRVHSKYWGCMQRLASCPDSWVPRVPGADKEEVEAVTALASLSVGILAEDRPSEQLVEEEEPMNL

HDAC9 = HDAC9 (Homo sapiens, UniProt Q9UKV0); experiment: Biochemical assay for HDAC inhibition, HDAC9; conditions: concentrations as high as 100 μM
HDAC9, sequence (Q9UKV0 whole entry): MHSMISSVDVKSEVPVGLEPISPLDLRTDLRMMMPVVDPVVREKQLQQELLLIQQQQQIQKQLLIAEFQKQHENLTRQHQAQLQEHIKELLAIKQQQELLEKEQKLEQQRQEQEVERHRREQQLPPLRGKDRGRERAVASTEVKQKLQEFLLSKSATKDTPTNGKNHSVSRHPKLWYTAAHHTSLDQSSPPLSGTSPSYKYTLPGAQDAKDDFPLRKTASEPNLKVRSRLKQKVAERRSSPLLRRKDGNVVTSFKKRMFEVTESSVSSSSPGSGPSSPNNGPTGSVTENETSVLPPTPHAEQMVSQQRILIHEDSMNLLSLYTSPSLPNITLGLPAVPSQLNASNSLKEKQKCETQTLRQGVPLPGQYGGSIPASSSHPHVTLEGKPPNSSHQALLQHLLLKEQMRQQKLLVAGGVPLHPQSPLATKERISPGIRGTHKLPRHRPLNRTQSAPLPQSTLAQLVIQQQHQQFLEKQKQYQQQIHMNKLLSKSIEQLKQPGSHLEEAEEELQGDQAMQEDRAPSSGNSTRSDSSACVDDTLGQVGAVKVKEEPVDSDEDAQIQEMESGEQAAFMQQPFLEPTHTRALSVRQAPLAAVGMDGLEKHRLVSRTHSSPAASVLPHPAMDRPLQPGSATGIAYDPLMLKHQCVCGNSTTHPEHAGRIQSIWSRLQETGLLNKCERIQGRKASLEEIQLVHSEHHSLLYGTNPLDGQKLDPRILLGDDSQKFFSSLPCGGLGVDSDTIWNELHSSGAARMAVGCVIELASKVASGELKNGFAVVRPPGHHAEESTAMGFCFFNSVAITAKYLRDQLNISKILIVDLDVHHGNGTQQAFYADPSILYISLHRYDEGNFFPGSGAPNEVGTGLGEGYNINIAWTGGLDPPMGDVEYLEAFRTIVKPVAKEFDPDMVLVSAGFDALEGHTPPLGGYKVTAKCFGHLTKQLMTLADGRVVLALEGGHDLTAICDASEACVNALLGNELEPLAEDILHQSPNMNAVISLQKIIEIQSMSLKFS

CCC(CC)(c1ccc(C(=O)NCCCCC(=O)NO)cc1)c1ccc(OCC(O)C(C)(C)C)c(C)n1 (stereo not drawn) [ZG-126, 4-(3-(5-(2-Hydroxy-3,3-dimethylbutoxy)-6-methylpyridin-2-yl)pentan-3-yl)-N-(5-(hydroxyamino)-5-oxopentyl)benzamide]
solubility (Solubility): 9.19 µg/mL (≈ 17.9 µM)
histone H3 hyperacetylation at lysine 9 and 27 (H3K9 and H3K27) [1]: comparable or superior to AM-193
tubulin acetylation ([1]; SAHA 100 nM): by far the most efficacious
tubulin and histone hyperacetylation [2]: induced higher levels of tubulin and histone hyperacetylation than SAHA
Cyp24a1 induction in B16-F10 tumors (B16-F10 tumors): robust induction of Cyp24a1
reduction in tumor burden (4T1 tumors; BALB/c mice, ZG-126 high dose 5 mg/kg, statistically significant): ~50%
#Surface metastases (lung) (4T1 tumors; 1,25D 0.25 μg/kg, SAHA 80 mg/kg, AM-193 0.2 mg/kg, ZG-126 high 5.0 mg/kg): 47
#Surface metastases (lung) (4T1 tumors; ZG-126 low 1.5 mg/kg): 126
reduction of surface lung metastases (4T1 tumors; high-dose ZG-126 (5 mg/kg)): ~4 fold
MTD (in vivo): 10 mg/kg
IC50 (HDAC7): 55.4 µM
inhibition of HDAC9 (HDAC9): no or very limited inhibition
